# Data as given in patent US12570612B2, “Substituted nitrogen heterocyclic compound and anesthetic effect thereof” (priority 2019, dated 2026).
# Key:
# Sprague-Dawley rats [1] = assay: Pharmacological effect and adverse reactions under the equivalent dose (2ED50), Group C compounds; format: in vivo; details: for Righting reflex duration / Sedation duration / Onset time: 2ED50, tail vein, rats, n=8; for Onset time: unit s; for Adverse reaction: Convulsions / Adverse reaction: Cough, broken-winded / Adverse reaction: Euphoria / Adverse reaction: Red urine / Adverse reaction: Slower breathing, Tetany convulsion / Adverse reaction: Systemic stiffness, Convulsions, Opisthotonus / Adverse reaction: Tongue stretching / Adverse reaction: Tremor / Adverse reaction: the four limbs rigidity: equivalent dose (2ED50), number of rats of n = 8
# Source text: Evaluation index: onset time: from the completion of drug injection to the disappearance of forepaw righting reflex in rats; Duration of anesthesia: the time from the disappearance of rat forepaw righting reflex to the recovery of rat forepaw righting reflex; Recovery time of anesthesia: the time from the […] to complete recovery;
# adrenal cortex function = assay: Adrenocortical function in rats: corticosterone after dexamethasone and ACTH, Group C compounds; details: for Give ACTH 30min later(S2) corticosterone concentration: drug at 2ED50, 30 min after ACTH 25 ug/kg; for Baseline(S1) corticosterone concentration: two hours after dexamethasone 0.5 mg/kg, before drug
# Description: Instruments and equipment: multi-function ion meter (METTLER TOLEDO, models: SevenMulti), pipetting gun (Eppendorf, specifications: 1000 ul, 200 ul, 100 ul, 10 ul), electronic balance (model: ME215S, manufacturers: Sartorius, Germany), the timer. Experimental Method: Adult male Sprague-Dawley rats (250-300 g) were selected for the experiment (n=8), all the experiment were started in the morning. Place indwelling needles in tail vein of rats and inject dexamethasone (0.5 mg/kg). The first time of blood collection (S1) is in two hours later, and give dexamethasone (0.2 mg/kg). […] All the drugs were administered in a volume of 0.6 ml and at a rate of 0.1 ml/s. 15 min later, exogenous ACTH (25 ug/kg) was injected. Another blood sample was collected after 30 min(S2). The blood samples were left standing at room temperature for 30-60 min, followed by centrifugation at 3500 rpm for 10 min. The supernatant was taken and centrifuged again at 15000 rpm for 5 min before being frozen and stored in a −20° C. refrigerator.
# Evaluation indexes: The concentration of the corticosterone in the supernatant of rats before and after given drugs.
# SD rats = details: for After the infusion is stopped: Righting reflex recovery time / Recovery time after stopping infusion: after 1 hour continuous infusion at 2 times the MIR; for After the infusion is stopped: Righting reflex recovery time / Recovery time after stopping infusion / Sedation onset time: SD rats; for Sedation onset time: continuous tail vein infusion at 2 times the MIR
# Description: Experimental Methods: Adult male SD rats with body weight ranging from 250 g to 350 g were selected for continuous infusion test.
# Evaluation indexes: the time from the beginning of continuous infusion to the […] of sedation in rats; the time from the cessation of infusion to the restoration of the forepaw turning reflex after 1 hour of continuous infusion; the time from the cessation of infusion to the complete restoration of rats after 1 hour of continuous infusion.
# Sprague-Dawley rats [2] = assay: animal or person; format: in vivo; details: rats; for ED50: LORR, up and down method, tail vein, class symbols
# Source text: Evaluating indicator: The end point of anesthesia: LORR was used as the end point of anesthesia; General anesthesia effect: the disappearance of forepaw righting reflex in rats lasting for 30 seconds is taken as the index of general anesthesia effect; Anesthesia recovery index: the recovery of rat forepaw righting reflex was used as the index of anesthesia recovery.
# Sprague-Dawley rats [3] = format: in vivo; details: tail vein
# [4] = continuous infusion 2 x MIR 1 hour, rats affected/rats
structure (smiles),measurement,setting,value
CCOCC(=O)c1ccnn1[C@H](C)c1ccccc1 [Compound C2],Righting reflex duration,Sprague-Dawley rats [1],1.78 ± 0.53 min
same,Sedation duration,Sprague-Dawley rats [1],5.38 ± 0.78 min
same,Onset time,Sprague-Dawley rats [1],<30 s
same,Adverse reaction: Convulsions,Sprague-Dawley rats [1],0
same,"Adverse reaction: Cough, broken-winded",Sprague-Dawley rats [1],0
same,Adverse reaction: Euphoria,Sprague-Dawley rats [1],0
same,Adverse reaction: Red urine,Sprague-Dawley rats [1],8
same,"Adverse reaction: Slower breathing, Tetany convulsion",Sprague-Dawley rats [1],0
same,"Adverse reaction: Systemic stiffness, Convulsions, Opisthotonus",Sprague-Dawley rats [1],0
same,Adverse reaction: Tongue stretching,Sprague-Dawley rats [1],2
same,Adverse reaction: Tremor,Sprague-Dawley rats [1],0
same,Adverse reaction: the four limbs rigidity,Sprague-Dawley rats [1],0
same,Give ACTH 30min later(S2) corticosterone concentration,adrenal cortex function,242.12 ± 46.22
same,Baseline(S1) corticosterone concentration,adrenal cortex function,163.22 ± 35.11
same,After the infusion is stopped: Righting reflex recovery time,SD rats,10 to 15 min
same,Recovery time after stopping infusion,SD rats,20 to 30 min
same,Types and incidence of adverse reactions: Red urine,SD rats; [4],6/6
same,Types and incidence of adverse reactions: Tongue stretching,SD rats; [4],Tongue stretching(4/6)
same,Types and incidence of adverse reactions: Tremor,SD rats; [4],3/6
same,Sedation onset time,SD rats,<5 min
same,ED50,Sprague-Dawley rats [2],"++++ (++++ indicates that the measured ED50 is in the range of 2.00-10.00 mg/kg (excluding 2.00 mg/kg, including 6.00 mg/kg))"
same,Approximate therapeutic index,Sprague-Dawley rats [2],>2.5
same,Minimal lethal dose,Sprague-Dawley rats [3],>12.4 mg/kg
C#CCOCC(=O)c1cc(F)nn1[C@H](C)c1ccccc1 [Compound C15],Righting reflex duration,Sprague-Dawley rats [1],2.13 ± 0.59 min
same,Sedation duration,Sprague-Dawley rats [1],5.3 ± 0.92 min
same,Onset time,Sprague-Dawley rats [1],<30 s
same,Adverse reaction: Convulsions,Sprague-Dawley rats [1],0
same,"Adverse reaction: Cough, broken-winded",Sprague-Dawley rats [1],0
same,Adverse reaction: Euphoria,Sprague-Dawley rats [1],0
same,Adverse reaction: Red urine,Sprague-Dawley rats [1],8
same,"Adverse reaction: Slower breathing, Tetany convulsion",Sprague-Dawley rats [1],0
same,"Adverse reaction: Systemic stiffness, Convulsions, Opisthotonus",Sprague-Dawley rats [1],0
same,Adverse reaction: Tongue stretching,Sprague-Dawley rats [1],0
same,Adverse reaction: Tremor,Sprague-Dawley rats [1],1
same,Adverse reaction: the four limbs rigidity,Sprague-Dawley rats [1],0
same,Give ACTH 30min later(S2) corticosterone concentration,adrenal cortex function,267.99 ± 33.20
same,Baseline(S1) corticosterone concentration,adrenal cortex function,145.90 ± 54.33
same,After the infusion is stopped: Righting reflex recovery time,SD rats,16 to 18 min
same,Recovery time after stopping infusion,SD rats,30 to 36 min
same,Types and incidence of adverse reactions: Red urine,SD rats; [4],6/6
same,Types and incidence of adverse reactions: Tremor,SD rats; [4],1/6
same,Sedation onset time,SD rats,<5 min
same,ED50,Sprague-Dawley rats [2],"++++ (++++ indicates that the measured ED50 is in the range of 2.00-10.00 mg/kg (excluding 2.00 mg/kg, including 6.00 mg/kg))"
same,Approximate therapeutic index,Sprague-Dawley rats [2],>3.4
same,Minimal lethal dose,Sprague-Dawley rats [3],>16.8 mg/kg
CC#CCOCC(=O)c1cncn1[C@H](C)c1ccccc1 [Compound C27],Righting reflex duration,Sprague-Dawley rats [1],1.48 ± 0.14 min
same,Sedation duration,Sprague-Dawley rats [1],4.39 ± 0.94 min
same,Onset time,Sprague-Dawley rats [1],<30 s
same,Adverse reaction: Convulsions,Sprague-Dawley rats [1],0
same,"Adverse reaction: Cough, broken-winded",Sprague-Dawley rats [1],0
same,Adverse reaction: Euphoria,Sprague-Dawley rats [1],0
same,Adverse reaction: Red urine,Sprague-Dawley rats [1],8
same,"Adverse reaction: Slower breathing, Tetany convulsion",Sprague-Dawley rats [1],0
same,"Adverse reaction: Systemic stiffness, Convulsions, Opisthotonus",Sprague-Dawley rats [1],1
same,Adverse reaction: Tongue stretching,Sprague-Dawley rats [1],2
same,Adverse reaction: Tremor,Sprague-Dawley rats [1],0
same,Adverse reaction: the four limbs rigidity,Sprague-Dawley rats [1],0
same,Give ACTH 30min later(S2) corticosterone concentration,adrenal cortex function,253.11 ± 34.56
same,Baseline(S1) corticosterone concentration,adrenal cortex function,180.33 ± 46.70
same,After the infusion is stopped: Righting reflex recovery time,SD rats,12 to 16 min
same,Recovery time after stopping infusion,SD rats,15 to 20 min
same,Types and incidence of adverse reactions: Red urine,SD rats; [4],6/6
same,Types and incidence of adverse reactions: Tremor,SD rats; [4],5/6
same,Sedation onset time,SD rats,<5 min
same,ED50,Sprague-Dawley rats [2],"++ (++ means that the measured ED50 is in the range of 0.50-1.00 mg/kg (excluding 0.50 mg/kg, including 1.00 mg/kg))"
same,Approximate therapeutic index,Sprague-Dawley rats [2],>16.6
same,Minimal lethal dose,Sprague-Dawley rats [3],>13.6 mg/kg
